According to paper PMC8330742, “New benzothieno[2,3-c]pyridines as non-steroidal CYP17 inhibitors: design, synthesis, anticancer screening, apoptosis induction, and in silico ADME profile studies” (Journal of Enzyme Inhibition and Medicinal Chemistry, 2021):

What was measured:
[1] = test system: KM12; test: NCI-60 SRB screen; type: cell-based, human; details: Homo sapiens; single dose 10^−5 M; KM12, Colon cancer; read-out: Growth inhibition (%)
[2] = test system: NCI/ADR-RES; test: NCI-60 SRB screen; type: cell-based, human; details: Homo sapiens, single dose 10^−5 M, Ovarian cancer, read-out: Growth inhibition (%)
[3] = test system: MALME-3M; test: NCI-60 SRB screen; type: cell-based, human; details: Homo sapiens, single dose 10^−5 M, Melanoma, read-out: Growth inhibition (%)
[4] = test system: SK-MEL-28; test: NCI-60 SRB screen; type: cell-based; details: Homo sapiens; single dose 10^−5 M; SK-MEL-28, Melanoma; read-out: Growth inhibition (%)
[5] = test system: SF-295; test: NCI-60 SRB screen; type: cell-based, human; details: Homo sapiens; single dose 10^−5 M; SF-295, CNS cancer; read-out: Growth inhibition (%)
[6] = test system: K-562; test: NCI-60 SRB screen; type: cell-based, human; details: Homo sapiens, K562; single dose 10^−5 M; K-562, Leukaemia; read-out: Growth inhibition (%)
[7] = test system: NCI-H226; test: NCI-60 SRB screen; type: cell-based, human; details: Homo sapiens; single dose 10^−5 M; NCI-H226, Non-small cell lung carcinoma; read-out: Growth inhibition (%)
[8] = test system: UACC-62; test: NCI-60 SRB screen; type: cell-based, human; details: Homo sapiens; single dose 10^−5 M; UACC-62, Melanoma; read-out: Growth inhibition (%)
[9] = test system: panel of 60 cancer cell lines; test: NCI-60 SRB screen, mean or range over the panel; type: cell-based, human; details: Homo sapiens; mean over the cell lines; single dose 10^−5 M; read-out: Mean growth inhibition (%)
[10] = test system: 786-0; test: NCI-60 SRB screen; type: cell-based; details: Homo sapiens; single dose 10^−5 M; 786-0, Renal cancer; read-out: Growth inhibition (%)
[11] = test system: M14; test: NCI-60 SRB screen; type: cell-based, human; details: Homo sapiens; single dose 10^−5 M; M14, Melanoma; read-out: Growth inhibition (%)
[12] = test system: ACHN; test: NCI-60 SRB screen; type: cell-based; details: Homo sapiens, single dose 10^−5 M, Renal cancer, read-out: Growth inhibition (%)
[13] = test system: NCI-H23; test: NCI-60 SRB screen; type: cell-based, human; details: Homo sapiens; single dose 10^−5 M; NCI-H23, Non-small cell lung carcinoma; read-out: Growth inhibition (%)
[14] = test system: SR; test: NCI-60 SRB screen; type: cell-based; details: Homo sapiens, single dose 10^−5 M, Leukaemia, read-out: Growth inhibition (%)
[15] = test system: SK-MEL-2; test: NCI-60 SRB screen; type: cell-based, human; details: Homo sapiens; single dose 10^−5 M; SK-MEL-2, Melanoma; read-out: Growth inhibition (%)
[16] = test system: A549/ATCC; test: NCI-60 SRB screen; type: cell-based, human; details: Homo sapiens, single dose 10^−5 M, Non-small cell lung carcinoma, read-out: Growth inhibition (%)
[17] = test system: TK-10; test: NCI-60 SRB screen; type: cell-based, human; details: Homo sapiens; single dose 10^−5 M; TK-10, Renal cancer; read-out: Growth inhibition (%)
[18] = test system: CAKI-1; test: NCI-60 SRB screen; type: cell-based, human; details: Homo sapiens; single dose 10^−5 M; CAKI-1, Renal cancer; read-out: Growth inhibition (%)
[19] = test system: SK-OV-3; test: NCI-60 SRB screen; type: cell-based, human; details: Homo sapiens; single dose 10^−5 M; SK-OV-3, Ovarian cancer; read-out: Growth inhibition (%)
[20] = test system: HL-60(TB); test: NCI-60 SRB screen; type: cell-based, human; details: Homo sapiens; single dose 10^−5 M; HL-60(TB), Leukaemia; read-out: Growth inhibition (%)
[21] = test system: NCI-H322M; test: NCI-60 SRB screen; type: cell-based, human; details: Homo sapiens, single dose 10^−5 M, Non-small cell lung carcinoma, read-out: Growth inhibition (%)
[22] = test system: HOP-62; test: NCI-60 SRB screen; type: cell-based, human; details: Homo sapiens; single dose 10^−5 M; HOP-62, Non-small cell lung carcinoma; read-out: Growth inhibition (%)
[23] = test system: HT-29; test: NCI-60 SRB screen; type: cell-based; details: Homo sapiens; single dose 10^−5 M; HT-29, Colon cancer; read-out: Growth inhibition (%)
[24] = test system: OVCAR-4; test: NCI-60 SRB screen; type: cell-based, human; details: Homo sapiens; single dose 10^−5 M; OVCAR-4, Ovarian cancer; read-out: Growth inhibition (%)
[25] = test system: HCT-15; test: NCI-60 SRB screen; type: cell-based, human; details: Homo sapiens; single dose 10^−5 M; HCT-15, Colon cancer; read-out: Growth inhibition (%)
[26] = test system: IGROV1; test: NCI-60 SRB screen; type: cell-based, human; details: Homo sapiens, IGROV-1; single dose 10^−5 M; IGROV1, Ovarian cancer; read-out: Growth inhibition (%)
[27] = test system: MOLT-4; test: NCI-60 SRB screen; type: cell-based; details: Homo sapiens; single dose 10^−5 M; MOLT-4, Leukaemia; read-out: Growth inhibition (%)
[28] = test system: OVCAR-3; test: NCI-60 SRB screen; type: cell-based, human; details: Homo sapiens; single dose 10^−5 M; OVCAR-3, Ovarian cancer; read-out: Growth inhibition (%)
[29] = test system: UACC-257; test: NCI-60 SRB screen; type: cell-based, human; details: Homo sapiens; single dose 10^−5 M; UACC-257, Melanoma; read-out: Growth inhibition (%)
[30] = test system: NCI-H460; test: NCI-60 SRB screen; type: cell-based, human; details: Homo sapiens; single dose 10^−5 M; NCI-H460, Non-small cell lung carcinoma; read-out: Growth inhibition (%)
[31] = test system: COLO 205; test: NCI-60 SRB screen; type: cell-based, human; details: Homo sapiens; single dose 10^−5 M; COLO 205, Colon cancer; read-out: Growth inhibition (%)
[32] = test system: HCT-116; test: NCI-60 SRB screen; type: cell-based, human; details: Homo sapiens; single dose 10^−5 M; HCT-116, Colon cancer; read-out: Growth inhibition (%)
[33] = test system: CCRF-CEM; test: NCI-60 SRB screen; type: cell-based; details: Homo sapiens, single dose 10^−5 M, Leukaemia, read-out: Growth inhibition (%)
[34] = test system: UO-31; test: NCI-60 SRB screen; type: cell-based, human; details: Homo sapiens; single dose 10^−5 M; UO-31, Renal cancer; read-out: Growth inhibition (%)
[35] = test system: HCC-2998; test: NCI-60 SRB screen; type: cell-based, human; details: Homo sapiens; single dose 10^−5 M; HCC-2998, Colon cancer; read-out: Growth inhibition (%)
[36] = test system: LOX IMVI; test: NCI-60 SRB screen; type: cell-based, human; details: Homo sapiens, single dose 10^−5 M, Melanoma, read-out: Growth inhibition (%)
[37] = test system: SK-MEL-5; test: NCI-60 SRB screen; type: cell-based, human; details: Homo sapiens; single dose 10^−5 M; SK-MEL-5, Melanoma; read-out: Growth inhibition (%)
[38] = test system: NCI-H522; test: NCI-60 SRB screen; type: cell-based, human; details: Homo sapiens; single dose 10^−5 M; NCI-H522, Non-small cell lung carcinoma; read-out: Growth inhibition (%)
[39] = test system: SN12C; test: NCI-60 SRB screen; type: cell-based, human; details: Homo sapiens, SN12C; single dose 10^−5 M; SN 12 C, Renal cancer; read-out: Growth inhibition (%)
[40] = test system: EKVX; test: NCI-60 SRB screen; type: cell-based, human; details: Homo sapiens, single dose 10^−5 M, Non-small cell lung carcinoma, read-out: Growth inhibition (%)
[41] = test system: HOP-92; test: NCI-60 SRB screen; type: cell-based, human; details: Homo sapiens; single dose 10^−5 M; HOP-92, Non-small cell lung carcinoma; read-out: Growth inhibition (%)
[42] = test system: SF-268; test: NCI-60 SRB screen; type: cell-based, human; details: Homo sapiens; single dose 10^−5 M; SF-268, CNS cancer; read-out: Growth inhibition (%)
[43] = test system: MDA-MB-435; test: NCI-60 SRB screen; type: cell-based; details: Homo sapiens, MDA-MB-435, read-out: Growth inhibition (%)
[44] = test system: SW-620; test: NCI-60 SRB screen; type: cell-based; details: Homo sapiens; single dose 10^−5 M; SW-620, Colon cancer; read-out: Growth inhibition (%)
[45] = test system: RXF 393; test: NCI-60 SRB screen; type: cell-based, human; details: Homo sapiens; single dose 10^−5 M; RXF 393, Renal cancer; read-out: Growth inhibition (%)

SMILES: N#CC1=C(N2CCCCC2)NC(c2cccc([N+](=O)[O-])c2)c2sc3c(F)cccc3c21 (stereo not drawn) [Compound 8f, 4-Cyano-3-(piperidin-1-yl)-8-fluoro-1-(3-nitrophenyl)-1,2-dihydro [1]benzothieno[2,3-c]pyridine]
- inhibition at 10 µM [1]: 5.13%
- inhibition at 10 µM [2]: -1.61%
- inhibition at 10 µM [3]: -10.6%
- inhibition at 10 µM [4]: -10.7%
- inhibition at 10 µM [5]: -9.62%
- inhibition at 10 µM [6]: 23.1%
- inhibition at 10 µM [7]: 15.7%
- inhibition at 10 µM [8]: 15.5%
- inhibition at 10 µM [9]: 0.008%
- inhibition at 10 µM [10]: -12.1%
- inhibition at 10 µM [11]: 0.58%
- inhibition at 10 µM [12]: 14.3%
- inhibition at 10 µM [13]: 4.09%
- inhibition at 10 µM [14]: 11.1%
- inhibition at 10 µM [15]: 2.71%
- inhibition at 10 µM [16]: -2.65%
- inhibition at 10 µM [17]: -53.1%
- inhibition at 10 µM [18]: 28.7%
- inhibition at 10 µM [19]: 7.22%
- inhibition at 10 µM [20]: -3.35%
- inhibition at 10 µM [21]: -5.64%
- inhibition at 10 µM [22]: 10.2%
- inhibition at 10 µM [23]: -4.42%
- inhibition at 10 µM [24]: 0.9%
- inhibition at 10 µM [25]: -4.78%
- inhibition at 10 µM [26]: 14.9%
- inhibition at 10 µM [27]: 5.31%
- inhibition at 10 µM [28]: 0.09%
- inhibition at 10 µM [29]: -12.7%
- inhibition at 10 µM [30]: 2.2%
- inhibition at 10 µM [31]: -16.7%
- inhibition at 10 µM [32]: 4.5%
- inhibition at 10 µM [33]: 3.32%
- inhibition at 10 µM [34]: 33.3%
- inhibition at 10 µM [35]: -23.2%
- inhibition at 10 µM [36]: 2.61%
- inhibition at 10 µM [37]: -14.8%
- inhibition at 10 µM [38]: 9.54%
- inhibition at 10 µM [39]: 3.7%
- inhibition at 10 µM [40]: 5.51%
- inhibition at 10 µM [41]: 4.9%
- inhibition at 10 µM [42]: 9.44%
- inhibition at 10 µM [43]: -6.93%
- inhibition at 10 µM [44]: 4.11%
- inhibition at 10 µM [45]: -6.31%

SMILES: O=[N+]([O-])c1cccc(C2NC3=C(Nc4ccccc4N3)c3c2sc2c(F)cccc32)c1 (stereo not drawn) [Compound 9, 9-Fluoro-7-(3-nitrophenyl)-5,6,7,13-tetrahydro[1]benzothieno[3′,2′:4,5]-pyrido[2,3-b]quinoxaline]
- inhibition at 10 µM [1]: -0.46%
- inhibition at 10 µM [2]: -6.5%
- inhibition at 10 µM [3]: -7.56%
- inhibition at 10 µM [4]: -7.98%
- inhibition at 10 µM [5]: -7.1%
- inhibition at 10 µM [6]: 16.6%
- inhibition at 10 µM [7]: 10.4%
- inhibition at 10 µM [8]: 11.5%
- inhibition at 10 µM [9]: 7.87%
- inhibition at 10 µM [10]: -10.3%
- inhibition at 10 µM [11]: 1.33%
- inhibition at 10 µM [12]: 15.5%
- inhibition at 10 µM [13]: 0.22%
- inhibition at 10 µM [14]: 16.5%
- inhibition at 10 µM [15]: 3.87%
- inhibition at 10 µM [16]: -2.98%
- inhibition at 10 µM [17]: -54.7%
- inhibition at 10 µM [18]: 28.3%
- inhibition at 10 µM [19]: -1.7%
- inhibition at 10 µM [20]: -3.65%
- inhibition at 10 µM [21]: -1.56%
- inhibition at 10 µM [22]: 9.45%
- inhibition at 10 µM [23]: -5.27%
- inhibition at 10 µM [24]: -2.74%
- inhibition at 10 µM [25]: -4.08%
- inhibition at 10 µM [26]: 24.2%
- inhibition at 10 µM [27]: -1.99%
- inhibition at 10 µM [28]: -3.93%
- inhibition at 10 µM [29]: -15.2%
- inhibition at 10 µM [30]: 1.16%
- inhibition at 10 µM [31]: -17.1%
- inhibition at 10 µM [32]: -1.05%
- inhibition at 10 µM [33]: -1.14%
- inhibition at 10 µM [34]: 36.1%
- inhibition at 10 µM [35]: -17.5%
- inhibition at 10 µM [36]: 3.13%
- inhibition at 10 µM [37]: -22%
- inhibition at 10 µM [38]: 4.63%
- inhibition at 10 µM [39]: 1.71%
- inhibition at 10 µM [40]: 4.82%
- inhibition at 10 µM [41]: -1.53%
- inhibition at 10 µM [42]: 7.06%
- inhibition at 10 µM [43]: -7%
- inhibition at 10 µM [44]: 2%
- inhibition at 10 µM [45]: -15.3%
